In article PMC7827406, “Structure–Activity Relationship (SAR) Study of Spautin-1 to Entail the Discovery of Novel NEK4 Inhibitors” (International Journal of Molecular Sciences, 2021):
Where two headings read alike, the source gives them in different places.

Columns and labels:
Experiment in all cases: biochemical
Parameters in all cases: Eurofins KinaseProfiler full panel at Km ATP, residual kinase activity (%) relative to DMSO
ALK1(h) = biological target: T1, ALK1(h) (Homo sapiens, UniProt P37023)
T1 construct: gene ACVRL1
How it was run: (§1)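 Compounds screened at 10 µM in radiometric kinase activity assays at Km ATP, reported as remaining kinase activity (%). A KINOMEscan competition-binding screen at 10 µM measured DNA-tagged kinase retained on immobilized active-site ligand by qPCR.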

Abl (M351T)(h) = biological target: T2, Abl (M351T)(h) (Homo sapiens, UniProt P00519, M351T)
T2 construct: gene ABL1
How it was run: as §1

CDK5/p35(h) = biological target: T3, CDK5/p35(h) (Homo sapiens, UniProt Q00535)
T3 construct: p35
How it was run: as §1

EphA7(h) = EphA7(h) (Homo sapiens, UniProt Q15375)
How it was run: as §1

LATS2(h) = biological target: T4, LATS2(h) (Homo sapiens, UniProt Q9NRM7)
T4 sequence (Q9NRM7 1-1088): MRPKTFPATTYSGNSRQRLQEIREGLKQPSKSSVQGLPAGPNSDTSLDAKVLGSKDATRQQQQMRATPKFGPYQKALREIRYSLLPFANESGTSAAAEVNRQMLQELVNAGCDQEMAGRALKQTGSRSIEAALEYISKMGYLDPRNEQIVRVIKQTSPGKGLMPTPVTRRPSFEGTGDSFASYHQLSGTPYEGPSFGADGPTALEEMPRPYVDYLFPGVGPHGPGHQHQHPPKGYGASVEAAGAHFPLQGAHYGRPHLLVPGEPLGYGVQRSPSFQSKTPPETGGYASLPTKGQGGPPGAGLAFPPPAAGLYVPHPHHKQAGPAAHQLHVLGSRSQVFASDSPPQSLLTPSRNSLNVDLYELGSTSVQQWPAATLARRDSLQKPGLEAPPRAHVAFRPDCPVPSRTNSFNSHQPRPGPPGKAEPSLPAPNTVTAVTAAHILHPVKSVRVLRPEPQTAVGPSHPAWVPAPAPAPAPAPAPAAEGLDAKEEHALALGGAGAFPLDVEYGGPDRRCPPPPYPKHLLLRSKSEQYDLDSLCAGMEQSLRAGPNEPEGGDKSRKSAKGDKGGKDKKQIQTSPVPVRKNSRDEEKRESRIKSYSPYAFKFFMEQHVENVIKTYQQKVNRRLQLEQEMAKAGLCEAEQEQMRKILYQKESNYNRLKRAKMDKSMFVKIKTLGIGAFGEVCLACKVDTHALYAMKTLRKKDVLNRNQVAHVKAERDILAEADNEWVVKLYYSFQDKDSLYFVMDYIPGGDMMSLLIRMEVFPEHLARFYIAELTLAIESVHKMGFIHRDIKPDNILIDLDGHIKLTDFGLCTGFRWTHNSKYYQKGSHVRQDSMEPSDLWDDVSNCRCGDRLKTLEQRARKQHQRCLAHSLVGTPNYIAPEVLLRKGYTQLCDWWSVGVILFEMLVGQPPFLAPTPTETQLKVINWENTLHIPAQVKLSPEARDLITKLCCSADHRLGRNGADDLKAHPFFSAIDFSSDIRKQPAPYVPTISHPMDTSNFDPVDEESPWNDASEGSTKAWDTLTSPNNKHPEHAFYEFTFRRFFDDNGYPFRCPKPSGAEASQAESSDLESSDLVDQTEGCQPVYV
How it was run: as §1

MEK1(h) = biological target: T5, MEK1(h) (Homo sapiens, UniProt Q02750)
T5 construct: gene MAP2K1
How it was run: as §1

MST3(h) = biological target: T6, MST3(h) (Homo sapiens, UniProt Q9Y6E0)
T6 construct: gene STK24
How it was run: as §1

PDGFRα(V561D)(h) = biological target: T7, PDGFRα(V561D)(h) (Homo sapiens, UniProt P16234, V561D)
T7 construct: gene PDGFRA
How it was run: as §1

[1] = biological target: T8, PI3 Kinase (p110a(E542K)/p85a)(h) (Homo sapiens, UniProt P42336, E542K)
T8 construct: gene PIK3CA
How it was run: as §1

[2] = biological target: T9, PI3 Kinase (p110d/p85a)(m) (Mus musculus, UniProt O35904)
T9 construct: gene Pik3cd
How it was run: as §1

PIP5K1g(h) = biological target: T10, PIP5K1g(h) (Homo sapiens, UniProt O60331)
T10 construct: gene PIP5K1C
How it was run: as §1

[3] = read-out: Residual activity (%) 5ay
[4] = read-out: Residual activity (%) Spautin-1 5aa
[5] = read-out: Residual activity (%) 5at
[6] = read-out: Residual activity (%) 5as

T10 sequence (O60331 whole entry): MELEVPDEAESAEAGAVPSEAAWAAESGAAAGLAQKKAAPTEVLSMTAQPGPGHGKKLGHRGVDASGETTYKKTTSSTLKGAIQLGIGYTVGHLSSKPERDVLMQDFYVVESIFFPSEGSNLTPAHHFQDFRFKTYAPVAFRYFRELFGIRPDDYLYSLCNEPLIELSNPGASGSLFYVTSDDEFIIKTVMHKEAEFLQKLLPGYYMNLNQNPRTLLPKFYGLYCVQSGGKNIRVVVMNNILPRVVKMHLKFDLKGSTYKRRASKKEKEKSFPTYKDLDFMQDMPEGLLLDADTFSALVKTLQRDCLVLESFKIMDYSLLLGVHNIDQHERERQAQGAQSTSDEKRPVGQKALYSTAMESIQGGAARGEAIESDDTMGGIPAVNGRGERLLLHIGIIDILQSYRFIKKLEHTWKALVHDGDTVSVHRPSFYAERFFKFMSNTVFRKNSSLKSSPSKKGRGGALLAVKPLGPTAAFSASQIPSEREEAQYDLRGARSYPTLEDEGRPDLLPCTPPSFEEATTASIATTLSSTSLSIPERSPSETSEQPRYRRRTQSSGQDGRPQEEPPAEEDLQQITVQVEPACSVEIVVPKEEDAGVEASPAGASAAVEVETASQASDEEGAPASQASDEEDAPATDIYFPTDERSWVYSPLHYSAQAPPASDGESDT
T3 sequence (Q00535 whole entry): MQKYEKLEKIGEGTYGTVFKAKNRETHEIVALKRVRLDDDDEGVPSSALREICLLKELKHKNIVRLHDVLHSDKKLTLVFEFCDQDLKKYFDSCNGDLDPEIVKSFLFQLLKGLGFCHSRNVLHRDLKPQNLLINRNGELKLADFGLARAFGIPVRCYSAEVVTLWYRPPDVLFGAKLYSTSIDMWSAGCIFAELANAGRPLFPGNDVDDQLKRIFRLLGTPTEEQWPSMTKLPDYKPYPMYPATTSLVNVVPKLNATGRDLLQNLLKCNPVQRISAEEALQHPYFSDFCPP
T3 sequence (Q15078 whole entry partner): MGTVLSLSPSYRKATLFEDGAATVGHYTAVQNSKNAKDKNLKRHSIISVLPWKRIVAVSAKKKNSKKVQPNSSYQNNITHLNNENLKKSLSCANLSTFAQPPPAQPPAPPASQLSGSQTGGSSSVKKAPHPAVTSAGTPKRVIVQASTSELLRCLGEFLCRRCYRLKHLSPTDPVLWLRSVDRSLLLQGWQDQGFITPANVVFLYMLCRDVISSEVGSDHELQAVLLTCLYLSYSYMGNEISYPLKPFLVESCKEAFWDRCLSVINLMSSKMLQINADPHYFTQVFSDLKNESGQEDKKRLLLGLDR
T5 sequence (Q02750 whole entry): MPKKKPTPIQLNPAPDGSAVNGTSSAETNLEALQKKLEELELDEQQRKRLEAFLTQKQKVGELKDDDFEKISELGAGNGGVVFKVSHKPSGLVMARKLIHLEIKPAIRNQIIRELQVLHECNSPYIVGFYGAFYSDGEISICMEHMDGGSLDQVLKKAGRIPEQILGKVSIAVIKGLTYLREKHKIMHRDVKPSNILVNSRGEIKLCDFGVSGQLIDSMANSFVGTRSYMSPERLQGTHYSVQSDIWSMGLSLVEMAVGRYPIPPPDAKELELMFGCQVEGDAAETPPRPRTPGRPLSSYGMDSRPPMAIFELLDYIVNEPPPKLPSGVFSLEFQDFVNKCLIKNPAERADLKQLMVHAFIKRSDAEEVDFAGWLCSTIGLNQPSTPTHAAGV
T9 sequence (O35904 whole entry): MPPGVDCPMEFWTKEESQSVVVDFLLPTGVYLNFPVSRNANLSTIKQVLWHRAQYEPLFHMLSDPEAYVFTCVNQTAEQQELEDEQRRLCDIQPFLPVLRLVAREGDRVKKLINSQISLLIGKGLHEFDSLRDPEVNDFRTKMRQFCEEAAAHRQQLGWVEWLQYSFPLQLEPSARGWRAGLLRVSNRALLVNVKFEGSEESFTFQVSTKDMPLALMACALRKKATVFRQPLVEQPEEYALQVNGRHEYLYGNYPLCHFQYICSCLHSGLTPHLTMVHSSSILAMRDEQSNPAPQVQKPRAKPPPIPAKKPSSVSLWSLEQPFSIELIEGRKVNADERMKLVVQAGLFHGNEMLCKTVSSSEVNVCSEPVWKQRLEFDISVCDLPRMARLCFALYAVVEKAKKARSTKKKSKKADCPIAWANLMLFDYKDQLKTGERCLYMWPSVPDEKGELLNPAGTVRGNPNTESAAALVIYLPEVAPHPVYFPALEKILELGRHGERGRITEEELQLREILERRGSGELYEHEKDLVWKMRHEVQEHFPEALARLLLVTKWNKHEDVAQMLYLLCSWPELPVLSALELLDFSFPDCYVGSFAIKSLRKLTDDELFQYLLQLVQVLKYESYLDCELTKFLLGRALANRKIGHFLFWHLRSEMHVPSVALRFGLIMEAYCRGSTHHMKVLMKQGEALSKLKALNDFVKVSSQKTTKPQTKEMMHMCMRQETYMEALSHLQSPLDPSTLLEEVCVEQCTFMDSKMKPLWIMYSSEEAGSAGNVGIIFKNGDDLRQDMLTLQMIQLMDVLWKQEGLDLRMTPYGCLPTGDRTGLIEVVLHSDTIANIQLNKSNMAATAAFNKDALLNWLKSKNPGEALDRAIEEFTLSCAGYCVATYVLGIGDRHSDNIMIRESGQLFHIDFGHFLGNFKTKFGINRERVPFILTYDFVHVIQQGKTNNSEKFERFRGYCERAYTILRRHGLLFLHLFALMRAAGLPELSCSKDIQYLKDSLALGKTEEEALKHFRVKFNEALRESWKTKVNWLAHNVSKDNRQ
T9 sequence (P26450 whole entry partner): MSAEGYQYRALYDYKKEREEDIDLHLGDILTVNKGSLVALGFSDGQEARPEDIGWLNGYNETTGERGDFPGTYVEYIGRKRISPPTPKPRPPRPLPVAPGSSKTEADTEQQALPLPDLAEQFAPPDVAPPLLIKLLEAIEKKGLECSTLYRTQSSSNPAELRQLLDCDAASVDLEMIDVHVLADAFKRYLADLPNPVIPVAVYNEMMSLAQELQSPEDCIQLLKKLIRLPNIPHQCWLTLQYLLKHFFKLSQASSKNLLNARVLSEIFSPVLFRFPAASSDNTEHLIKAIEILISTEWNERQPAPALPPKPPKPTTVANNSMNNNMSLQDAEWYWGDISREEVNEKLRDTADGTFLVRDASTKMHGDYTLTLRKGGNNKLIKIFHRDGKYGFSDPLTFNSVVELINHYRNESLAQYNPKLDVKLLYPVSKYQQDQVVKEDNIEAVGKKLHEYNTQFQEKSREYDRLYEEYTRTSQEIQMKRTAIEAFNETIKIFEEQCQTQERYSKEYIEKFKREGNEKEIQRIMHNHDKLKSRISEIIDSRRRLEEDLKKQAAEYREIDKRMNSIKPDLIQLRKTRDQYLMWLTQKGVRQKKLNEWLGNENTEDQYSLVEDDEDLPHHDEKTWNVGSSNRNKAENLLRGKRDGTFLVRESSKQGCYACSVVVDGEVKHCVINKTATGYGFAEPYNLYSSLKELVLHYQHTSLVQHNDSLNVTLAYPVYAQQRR
T1 sequence (P37023 whole entry): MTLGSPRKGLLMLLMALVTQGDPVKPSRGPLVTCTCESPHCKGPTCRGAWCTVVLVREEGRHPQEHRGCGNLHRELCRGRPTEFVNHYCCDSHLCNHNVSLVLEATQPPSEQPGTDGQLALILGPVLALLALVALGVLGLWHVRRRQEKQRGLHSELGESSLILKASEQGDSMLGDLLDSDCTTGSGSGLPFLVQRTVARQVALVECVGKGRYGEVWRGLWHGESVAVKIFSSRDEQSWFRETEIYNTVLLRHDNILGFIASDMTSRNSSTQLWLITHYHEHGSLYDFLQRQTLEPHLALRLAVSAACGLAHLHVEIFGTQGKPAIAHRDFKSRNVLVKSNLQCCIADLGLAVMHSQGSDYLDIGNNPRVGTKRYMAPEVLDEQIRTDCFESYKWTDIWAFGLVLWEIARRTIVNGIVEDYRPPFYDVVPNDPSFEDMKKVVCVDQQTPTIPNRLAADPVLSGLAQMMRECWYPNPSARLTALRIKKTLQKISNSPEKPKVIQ
T7 sequence (P16234 whole entry V561D): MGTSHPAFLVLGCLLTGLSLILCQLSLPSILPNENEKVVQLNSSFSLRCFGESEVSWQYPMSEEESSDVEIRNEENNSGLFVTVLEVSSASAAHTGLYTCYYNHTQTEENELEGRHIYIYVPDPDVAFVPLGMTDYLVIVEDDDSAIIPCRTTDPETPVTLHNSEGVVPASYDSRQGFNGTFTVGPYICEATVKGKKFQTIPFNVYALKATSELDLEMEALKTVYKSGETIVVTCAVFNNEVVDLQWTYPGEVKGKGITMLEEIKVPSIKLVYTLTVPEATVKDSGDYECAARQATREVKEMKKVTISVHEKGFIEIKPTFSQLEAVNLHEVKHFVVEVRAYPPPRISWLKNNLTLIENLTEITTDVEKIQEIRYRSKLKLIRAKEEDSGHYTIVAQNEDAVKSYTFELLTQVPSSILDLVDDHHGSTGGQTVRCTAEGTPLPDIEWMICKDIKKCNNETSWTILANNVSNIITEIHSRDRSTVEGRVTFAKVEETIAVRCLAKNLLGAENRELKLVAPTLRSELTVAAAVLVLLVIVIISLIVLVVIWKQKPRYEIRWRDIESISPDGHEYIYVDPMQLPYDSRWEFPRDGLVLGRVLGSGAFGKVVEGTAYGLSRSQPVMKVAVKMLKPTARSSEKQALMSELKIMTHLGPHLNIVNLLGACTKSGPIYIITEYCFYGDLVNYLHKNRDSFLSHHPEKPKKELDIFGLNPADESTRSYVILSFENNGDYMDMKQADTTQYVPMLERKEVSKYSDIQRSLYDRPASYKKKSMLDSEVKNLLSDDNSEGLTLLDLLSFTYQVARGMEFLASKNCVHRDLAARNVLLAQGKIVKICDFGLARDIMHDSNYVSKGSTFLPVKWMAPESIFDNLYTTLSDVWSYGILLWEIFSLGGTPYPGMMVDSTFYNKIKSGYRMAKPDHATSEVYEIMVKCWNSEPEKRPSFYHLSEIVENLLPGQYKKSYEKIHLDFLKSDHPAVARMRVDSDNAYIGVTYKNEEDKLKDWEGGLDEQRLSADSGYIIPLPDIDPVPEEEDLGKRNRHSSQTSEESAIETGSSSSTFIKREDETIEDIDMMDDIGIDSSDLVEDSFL

SMILES: COc1ccc2ncnc(Nc3cccc(F)c3)c2c1 [5ay, N-(3-Fluorophenyl)-6-Methoxy-4-Quinazolinamine]
- remaining activity at 10 µM (ALK1(h); [3]): 96%
- remaining activity at 10 µM (Abl (M351T)(h); [3]): 76%
- remaining activity at 10 µM (CDK5/p35(h); [3]): 89%
- remaining activity at 10 µM (EphA7(h); [3]): 90%
- remaining activity at 10 µM (LATS2(h); [3]): 72%
- remaining activity at 10 µM (MEK1(h); [3]): 93%
- remaining activity at 10 µM (MST3(h); [3]): 86%
- remaining activity at 10 µM (PDGFRα(V561D)(h); [3]): 98%
- remaining activity at 10 µM [1, 3]: 88%
- remaining activity at 10 µM [2, 3]: 96%
- remaining activity at 10 µM (PIP5K1g(h); [3]): 107%

SMILES: Fc1ccc(CNc2ncnc3ccc(F)cc23)cc1 [5aa, 6-Fluoro-N-(4-fluorobenzyl)-4-Quinazolinamine]
- remaining activity at 10 µM (ALK1(h); [4]): 104%
- remaining activity at 10 µM (Abl (M351T)(h); [4]): 93%
- remaining activity at 10 µM (CDK5/p35(h); [4]): 87%
- remaining activity at 10 µM (EphA7(h); [4]): 100%
- remaining activity at 10 µM (LATS2(h); [4]): 94%
- remaining activity at 10 µM (MEK1(h); [4]): 91%
- remaining activity at 10 µM (MST3(h); [4]): 80%
- remaining activity at 10 µM (PDGFRα(V561D)(h); [4]): 86%
- remaining activity at 10 µM [1, 4]: 94%
- remaining activity at 10 µM [2, 4]: 97%
- remaining activity at 10 µM (PIP5K1g(h); [4]): 100%

SMILES: Fc1ccc2ncnc(NCCc3ccc(Cl)cc3)c2c1 [5at, N-[2-(4-Chlorophenyl)Ethyl]-6-Fluoro-4-Quinazolinamine]
- remaining activity at 10 µM (ALK1(h); [5]): 93%
- remaining activity at 10 µM (Abl (M351T)(h); [5]): 69%
- remaining activity at 10 µM (CDK5/p35(h); [5]): 87%
- remaining activity at 10 µM (EphA7(h); [5]): 87%
- remaining activity at 10 µM (LATS2(h); [5]): 75%
- remaining activity at 10 µM (MEK1(h); [5]): 73%
- remaining activity at 10 µM (MST3(h); [5]): 74%
- remaining activity at 10 µM (PDGFRα(V561D)(h); [5]): 90%
- remaining activity at 10 µM [1, 5]: 93%
- remaining activity at 10 µM [2, 5]: 93%
- remaining activity at 10 µM (PIP5K1g(h); [5]): 101%

SMILES: Fc1ccc(CCNc2ncnc3ccc(F)cc23)cc1 [5as, 6-Fluoro-N-[2-(4-Fluorophenyl)Ethyl]-4-Quinazolinamine]
- remaining activity at 10 µM (ALK1(h); [6]): 85%
- remaining activity at 10 µM (Abl (M351T)(h); [6]): 73%
- remaining activity at 10 µM (CDK5/p35(h); [6]): 87%
- remaining activity at 10 µM (EphA7(h); [6]): 84%
- remaining activity at 10 µM (LATS2(h); [6]): 74%
- remaining activity at 10 µM (MEK1(h); [6]): 84%
- remaining activity at 10 µM (MST3(h); [6]): 89%
- remaining activity at 10 µM (PDGFRα(V561D)(h); [6]): 92%
- remaining activity at 10 µM [1, 6]: 91%
- remaining activity at 10 µM [2, 6]: 93%
- remaining activity at 10 µM (PIP5K1g(h); [6]): 104%
